Measured values published in patent US20230348400A1, “ORGANIC COMPOUND, LIGHT-EMITTING DEVICE, AND LIGHT-EMITTING APPARATUS” (SEMICONDUCTOR ENERGY LABORATORY CO., LTD., priority 2022, published 2023).
Converted amounts (≈) assume the structure as drawn.

Assay: Solubility test in water (stepwise addition of water, ultrasonic waves, visual observation of precipitate)
Assay type: physicochemical
Settings: for solubility at 1 min: from solid; for solubility in water as a fraction of the solubility of 2,7hpp2SF in water: one atmosphere, RT, relative to comparative 2,7hpp2SF
Experimental: In this example, the solubility of the organic compounds that can be used in the display apparatus of one embodiment of the present invention is described. Note that the solubility test was conducted at a pressure of one atmosphere at room temperature (RT).
(§1) The mixture was irradiated with ultrasonic waves for 1 minute. The mixture was visually observed, and a white powdered precipitate was observed. This means part of 2′,7′tBu-2,7hpp2SF remained undissolved. […] This process was repeated until the white powdered precipitate was not visually observed any more. Thus, the solubility was examined.
The mixture was irradiated with ultrasonic waves for 1 minute. Whether part of the mixture remained undissolved was visually confirmed, and a white powdered precipitate was observed. […] This process was repeated.
as §1, with “was” for “was visually”, “2,7hpp2SF” for “2′,7′tBu-2,7hpp2SF”

| solubility at 1 min [µg/mL] | solubility in water as a fraction of the solubility of 2,7hpp2SF in water | weight that is dissolved in 1.0 mL of water (pressure of one atmosphere, room temperature (RT)) | Compound |
| --- | --- | --- | --- |
| 330 to 390 (≈ 559 to 660 µM) | – | – | c1ccc2c(c1)-c1ccccc1C21c2cc(N3CCCN4CCCN=C43)ccc2-c2ccc(N3CCCN4CCCN=C43)cc21 [2,7hpp2SF, 1,1′-(9,9′-spirobi[9H-fluorene]-2,7-diyl)bis(1,3,4,6,7,8-hexahydro-2H-pyrimido[1,2-a]pyrimidine), reference compound] |
| 58 to 61 | less than or equal to ⅕ | – | CC(C)(C)c1ccc2c(c1)C1(c3cc(N4CCCN5CCCN=C54)ccc3-c3ccc(N4CCCN5CCCN=C54)cc31)c1cc(C(C)(C)C)ccc1-2 [Structural Formula (100), 1,1′-(2′,7′-di-tert-butyl-9,9′-spirobi[9H-fluorene]-2,7-diyl)bis(1,3,4,6,7,8-hexahydro-2H-pyrimido[1,2-a]pyrimidine)] |
| < 2.3 | less than or equal to 1/140 | less than 0.0023 mg | CC(C)(C)c1ccc2c(c1)C1(c3ccccc3-c3ccc(N4CCCN5CCCN=C54)cc31)c1cc(C(C)(C)C)ccc1-2 [Structural Formula (101), 1-(2′,7′-di-tert-butyl-9,9′-spirobi[9H-fluoren]-2-yl)-1,3,4,6,7,8-hexahydro-2H-pyrimido[1,2-a]pyrimidine] |
